Values quoted from earlier work in patent US6710179B2, “Compounds with analgesic effect” (AstraZeneca Canada Inc., priority 1996, dated 2004).

What was measured:
[1] = non-peptidic δ antagonists; prior art statement
δ receptor = δ receptor (Homo sapiens, UniProt P41143); details: non-peptidic δ antagonists; review Takemori and Portoghese 1992
Chain of δ receptor (P41143 whole entry): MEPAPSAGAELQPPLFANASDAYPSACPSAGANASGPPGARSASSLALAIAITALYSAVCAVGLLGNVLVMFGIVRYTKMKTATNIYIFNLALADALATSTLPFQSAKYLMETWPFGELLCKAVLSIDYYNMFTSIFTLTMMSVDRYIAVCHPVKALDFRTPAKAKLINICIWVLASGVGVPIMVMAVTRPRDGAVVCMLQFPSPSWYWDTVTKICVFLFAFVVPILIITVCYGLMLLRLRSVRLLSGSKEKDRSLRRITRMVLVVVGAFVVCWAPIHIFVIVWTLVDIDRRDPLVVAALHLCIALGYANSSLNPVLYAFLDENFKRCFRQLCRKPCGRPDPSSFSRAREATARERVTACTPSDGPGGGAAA

Question: For `Oc1ccc2c3c1O[C@H]1c4[nH]c5ccccc5c4C[C@@]4(O)[C@@H](C2)N(CC2CC2)CC[C@]314` [naltrindole], which analgesic activity [1] is on record?
Answer: no analgesic activity

Question: What about the “selectivity for the δ receptor vs. μ receptor binding” value (δ receptor) of the same molecule?
Answer: < 10 fold
